Measurements taken from patent US5980935A, “Cationic lipids and methods of use therefor” (priority 1996, dated 1999).

What was measured:
KB31 cells [1] = assay: Delivery of bacterial plasmid pUC-CMVLUC into KB31 cells, luciferase reporter expression (Table 1); type: cell-based, human; settings: KB cells, pUC-CMVLUC 1 microgram, 7 h; maximum over a range of plasmid/lipid ratios
Experimental: (§1) These materials were used as supplied from the manufacturer. DOTAP-DOPE 1:1 was prepared from the mixture (1:1 by weight) of 1,2 dioleoyloxy-3-trimethylammoniopropane (DOTAP, Avanti PolarLipids, USA) and DOPE by dissolving in distilled water at the concentration 2 mg/ml. DDAB-DOPE 1:2.5 (also known as LipofectACE®, Gibco BRL, USA) was prepared from the mixture of dioctadecyl-dimethylammonium bromide (DDAB, Sigma, USA) and DOPE in the weight ratio 1:2.5 dissolved in distilled water at concentration of 3 mg/ml with brief sonication. All lipid solutions were sterilized by filtration though 0.2 micrometer cellulase acetate filter, unless supplied sterile by manufacturers.
Human epidermoid carcinoma (KB31) cells were grown at 37° C. and 5% CO2 in RPMI 1640 medium supplemented with 10% heat-inactivated fetal calf serum. The cells were plated into a 12-well cell culture plate at 1.5×10^5 cells/well in 1 ml of the growth medium. After a 24 hour acclimation period, 1 microgram of bacterial plasmid (pUC-CMVLUC) with luciferase reporter gene under control of the CMV promoter was added to the cell media, either alone, or in the complex with cationic lipids as indicated below, prepared at a variety of lipid-to-DNA ratios. The complexes were prepared by mixing the lipid, as supplied by the manufacturer, and 1 microgram of the plasmid in 40 microliters of HEPES-NS. […]

C26 cells = assay: Delivery of bacterial plasmid into mouse colon carcinoma C26 cells, luciferase expression (Table 3); type: cell-based
Experimental: as §1
Mouse colon carcinoma cells (C26) were grown, incubated with plasmid pCMVLUC in the presence of Arg-PE or commercially available cationic lipids, and assayed for luciferase expression as described in Example 5 above.

NCI-H1048 cells [2] = assay: Delivery of bacterial plasmid into human extrapulmonary small cell carcinoma NCI-H1048 cells, luciferase expression (Table 4); type: cell-based
Experimental: as §1
The cells were plated into a 12-well cell culture plate at 1.5×10^5 cells/well in 1 ml of the growth medium. After a 24 hour acclimation period, 1 microgram of bacterial plasmid (pUC-CMVLUC) with luciferase reporter gene under control of the CMV promoter was added to the cell media, either alone, or in the complex with cationic lipids as indicated below, prepared at a variety of lipid-to-DNA ratios. The complexes were prepared by mixing the lipid, as supplied by the manufacturer, and 1 microgram of the plasmid in 40 microliters of HEPES-NS. […]

NCI-H1048 cells [3] = assay: Uptake of fluorescein-labeled 24-mer phosphorothioate oligonucleotide, flow cytometry (Table 2); type: cell-based, human; settings: for Total uptake: mean cell fluorescence / Uptake increase over oligo alone: oligonucleotide 0.5 micro-M
Experimental: Human small cell lung carcinoma cells (NCI-H1048) were grown in RPMI-1640 medium with 10% heat-inactivated fetal calf serum. The cells were exposed for 7 hours in a serum-free medium with a fluorescein-labeled 24-mer phosphorothioate oligonucleotide (0.5 micro-M final concentration), alone or in a complex with lipids obtained as described in Examples 2 and 3. Then the equal volume of serum-supplemented medium was added, and the cells were incubated for another 18 hours. After incubation, cellular accumulation of the oligonucleotide was assayed by flow cytometry using fluorescein label fluorescence.

NCI-A549 cells = assay: Uptake of fluorescein-labeled 18-mer phosphorothioate oligonucleotide (F-ON), fluorescence microscopy; type: cell-based, human; settings: oligonucleotide/lipid weight ratio 1:12, 24 hours, 37° C.
Experimental: Human lung adenocarcinoma cells (NCI-A549, American Type Culture Collection) were grown on Permanox® chamber slides in […] medium supplemented with 10% fetal calf serum (R-10) at 37° C. and 5% CO2. 4 micrograms of fluroscein-labeled 18-mer phosphorothioate oligonucleotide (F-ON) in 0.1 ml of HEPES-buffered saline (20 mM hydroxyethylpiperazine-ethane sulfonic acid (HEPES), 144 mM NaCl, pH 7.4) were mixed with Arg-PE formulated as described in Example 2, at the weight ratio of oligonucleotide to the lipid of 1:12. After 30 minutes of incubation, the mixture was made up to 2 mi with R-10 and added to the cells. After 24 hours incubation at 37° C., 5% CO2, the medium was aspirated, the cells washed 4 times with HEPES-buffered balanced salt solution, and immediately examined through a fluorescence microscope. […] Accumulation of the oligonucleotide in NCI-A549 cells, incubated with F-ON under the same conditions, but in the absence of Arg-PE, was undetectable.

KB31 cells [4] = assay: Toxicity of lipids alone or in complex with plasmid for cultured cells, MTT assay; type: cell-based, human; settings: for Toxicity in the studied range of concentrations efficient for gene delivery: cultured human cells, alone or in combination with DNA
Experimental: Lipids alone, or in the complex with pUC-CMVLUC plasmid at the indicated ratio were added to the cell medium at concentrations of 3.2-100 microgram of lipid per 1 ml of growth medium. After 24 hours exposure to the lipids, the lipid-containing media were removed, and the cells were further incubated in fresh growth medium for 65 hours. At the end of incubations, the cell viability was determined by MTT assay as described in T. Mossman 65 J. Immunol.

living cells = assay: Delivery of functional plasmid DNA and phosphorothioate oligonucleotide into living cells (summary comparison); type: cell-based
Text: We have tested Arg-PE for its ability to deliver functional plasmid DNA and phosphorothioate oligonucleotide (PS ON) into living cells. […] Helper lipids are required for the activity of previously known monocationic lipids.

[5] = pUC-CMVLUC, maximum over a range of plasmid/lipid ratios

SMILES | Maximum luciferase activity (KB31 cells [1]) | Plasmid delivery compared with other cationic lipids (C26 cells) | Maximum luciferase activity (C26 cells; [5]) | Plasmid delivery compared with Transfectam (NCI-H1048 cells [2]) | Maximum luciferase activity (NCI-H1048 cells [2]; [5]) | Enhancement of oligonucleotide uptake compared with commercial cationic lipids (NCI-H1048 cells [3]; NCI-H1048 cells) | Total uptake: mean cell fluorescence (NCI-H1048 cells [3]; oligo/lipid ratio 1:3) [relative units] | Uptake increase over oligo alone (NCI-H1048 cells [3]; oligo/lipid ratio 1:3) [times] | Total uptake: mean cell fluorescence (NCI-H1048 cells [3]; oligo/lipid ratio 1:6) [relative units] | Uptake increase over oligo alone (NCI-H1048 cells [3]; oligo/lipid ratio 1:6) [times] | Cells showing nuclear fluorescence and cytoplasmic deposits of fluorescent material (NCI-A549 cells) [%] | Microscopic appearance (intracellular distribution of F-ON) (NCI-A549 cells) | Toxicity compared with commercial lipids (MTT viability) (KB31 cells [4]; 3.2-100 microgram lipid per ml, 24 hours exposure, lipid as such or DNA-lipid complexes) | Toxicity in the studied range of concentrations efficient for gene delivery (KB31 cells [4]) | Efficiency of DNA delivery compared with DOGS (living cells) | Efficiency of cellular delivery of DNA and PS ON versus commercial materials (living cells) | DNA delivery activity without helper lipid (living cells; without the use of a "helper lipid")
CCCCCCCC/C=C\CCCCCCCC(=O)OC[C@H](COP(=O)(O)OCCNC(=O)[C@@H](N)CCCNC(=N)N)OC(=O)CCCCCCC/C=C\CCCCCCCC [Arg-PE, N-Arginyl-dioleoylphosphatidylethanolamine] | 8.25 × 10^6 RLU/mg protein | more effective for the plasmid delivery into C26 cells than other monocationic lipids and as effective as the polycationic lipid Transfectam® | 9.02 × 10^7 RLU/mg protein | as effective for the plasmid delivery into NCI-H1048 cells as a polycationic Transfectam® | 3.21 × 10^5 RLU/mg protein | enhanced the uptake of the oligonucleotide by the cells at least as effectively as the tested commercial cationic lipids | 2.97 | 4.26 | 4.08 | 5.85 | 100 | bright green nuclear fluorescence and substantial cytoplasmic deposits of granular fluorescent material | displayed the least toxicity | no detectable toxicity | superior to that of a polycationic lipid, DOGS | higher efficiency of the cellular delivery of DNA and PS ON | highly active for the DNA delivery into the cells even without the use of a "helper lipid"
CCCCCCCCCCCCCCCCCCN(CCCCCCCCCCCCCCCCCC)C(=O)CNC(=O)C(CCCNCCCN)NCCCN (stereo not drawn) [DOGS, reference compound] | – | – | – | – | – | – | – | – | – | – | – | – | – | no detectable toxicity | – | – | –
